The subject of experiment [1] is TNF secretion, RAW264.7 cells. Description: ELISA of TNF from RAW264.7 cells pretreated with kinase inhibitors. Format: cell-based. The method, then: (§1) Serum was separated from patient samples for measurement of AGEs with an ELISA kit (#MBS267540, MyBioSource, San Diego, CA, USA) according to the manufacturer’s instructions. […] Then, cultured cells were incubated with or without AGEs (100 μg/ml) for 12 h, and the supernatant was collected for the measurement of TNF (#MTA00B) and IL-6 (#M6000B) levels with ELISA kits (R&D Systems, Minneapolis, MN, USA) according to the manufacturer’s instructions.
For orientation: In an ELISA, binding on a coated surface is turned into a signal by an enzyme label.

The subject of experiment [2] is IL-6 secretion, RAW264.7 cells. In words: ELISA of IL-6 from RAW264.7 cells pretreated with kinase inhibitors. Format: cell-based. Also noted: unit not given here. The method, then:
as §1

For experiment [3], the system named is IKKα/β phosphorylation, BMDMs. Description: Western blot, IKKα/β phosphorylation in WT or SLP76-/- BMDMs stimulated with HMGB1. In kind it is cell-based, mice. The following applies: relative to WT Ctrl = 1. The method, then:
(§2) Cultured cells in 6-well plates were harvested, washed twice with PBS, and lysed for 30 min on ice in 150 μl of cell lysis buffer (#9803) from CST (Boston, MA, USA) containing 1 mM PMSF and 2 μg/ml leupeptin. Proteins were quantified with the BCA method. Protein samples were resolved by 10% SDS-PAGE, transferred to a nitrocellulose (NC) membrane (#GE10600002), and blocked for 1 h with 5% nonfat milk in Tris-buffered saline containing 0.1% Tween 20 (TBST) at room temperature. After incubation with a specific primary antibody overnight at 4 °C, the membrane was washed with TBST three times. Then, the membrane was incubated with a secondary antibody for 1 h at room temperature. Enhanced chemiluminescence (ECL) (#32109, Thermo Fisher Scientific, Waltham, MA, USA) was used to visualize the protein bands, and images were acquired in a ChemiDoc™ Imaging System (Bio-Rad, Hercules, CA, USA). Each experiment was repeated at least three times.
(§3) BMDMs were isolated from WT, AGER knockout, and SLP76 knockout mice. Mice were euthanized, and the femur and tibia were isolated and sterilized in 70% ethanol for 15 s and then washed with PBS. A 25-gauge needle was used to flush out the bone marrow with DMEM supplemented with 1% FBS. Bone marrow cells were passed through a cell strainer (70 μm), washed with PBS, and plated into a […] dish at a density of 1 × 10^7 cells/10 ml medium. BMDMs were grown in DMEM supplemented with 10% FBS and M-CSF (#130-094-129) (20 ng/ml) at 37 °C, and the medium was refreshed on day 3. After growth for 7 days, the cells were ready for use in subsequent experiments.
(A western blot detects proteins with antibodies after separation by electrophoresis.)

The test system of experiment [4] is p38 MAPK phosphorylation, BMDMs. Description: Western blot, p38 MAPK phosphorylation in WT or SLP76-/- BMDMs stimulated with HMGB1. In kind it is cell-based, mice. The following applies: for Relative p38 MAPK phosphorylation, Supplementary figure 12a: relative to WT Ctrl = 1. The method, then: as §2, §3
The subject of experiment [5] is ERK1/2 phosphorylation, BMDMs. In words: Western blot, ERK1/2 phosphorylation in WT or SLP76-/- BMDMs stimulated with HMGB1. In kind it is cell-based, mice. The following applies: relative to WT Ctrl = 1. The method, then: as §2, §3
For another experiment, the system named is cytosolic tail of RAGE. In words: SPRi binding affinity of SAM domain peptide to RAGE cytosolic tail peptide. Conditions: synthetic peptides, SAM 250, 500, 1000, 2000 nM, TBS pH 7.5, n=4. The method, then: To measure the binding affinity of the cytosolic tail of RAGE with the SAM domain of SLP76, a PlexArray HT A100 (Plexera, USA) was used to monitor the whole procedure in real time. Briefly, a chip with well-prepared biomolecular microarray was assembled with a plastic flow cell for sample loading. The synthesized peptide of RAGE cytosolic tail was prepared at 5 mM concentration in Tris-buffered saline (TBS) running buffer (20 mM Tris and 100 mM NaCl [pH 7.5]), and a 10 mM glycine-HCl buffer (pH 2.0) was used as regeneration buffer. The synthesized peptide of SLP76 SAM domain flowed at increasing concentrations (250, 500, 1000, 2000 nM). Binding data were collected and analyzed by a commercial SPRi analysis software (Plexera SPR Data Analysis Module, Plexera, USA).

[6] abbreviates: AGEs-, inhibitor alone, replicate Exp1, in pg/mL.
[7] abbreviates: AGEs-, inhibitor alone, replicate Exp2, in pg/mL.
Setting [8] is: AGEs-, inhibitor alone, replicate Exp3, in pg/mL.
The mark [9] stands for this setting: inhibitor 1 h, then AGEs 100 μg/ml 12 h, replicate Exp1, in pg/mL.
Setting [10] is: inhibitor 1 h, then AGEs 100 μg/ml 12 h, replicate Exp2, in pg/mL.
Setting [11] is: inhibitor 1 h, then AGEs 100 μg/ml 12 h, replicate Exp3, in pg/mL.
Setting [12] is: AGEs-, inhibitor alone, replicate Exp1.
[13] abbreviates: AGEs-, inhibitor alone, replicate Exp2.
Where [14] appears, read: AGEs-, inhibitor alone, replicate Exp3.
The mark [15] stands for this setting: inhibitor 1 h, then AGEs 100 μg/ml 12 h, replicate Exp1.
Where [16] appears, read: inhibitor 1 h, then AGEs 100 μg/ml 12 h, replicate Exp2.
Setting [17] is: inhibitor 1 h, then AGEs 100 μg/ml 12 h, replicate Exp3.

For `COc1cc(O)c2c(c1)oc(=O)c1c3cc(O)c(O)cc3oc21` [NF-kB inhibitor], the “TNF level in culture medium” value in experiment [1] (setting [6]) turned out to be 256.62; in experiment [1] (setting [7]), 271.706; in experiment [1] (setting [8]), 441.431; in experiment [1] (setting [9]), 3097.6; in experiment [1] (setting [10]) it was 4273.53; in experiment [1] (setting [11]) it was 5262.53. Besides, the “IL-6 level in culture medium” value is recorded as 8.8 in experiment [2] (setting [12]); 7.706 in experiment [2] (setting [13]); 6.631 in experiment [2] (setting [14]); 22.657 in experiment [2] (setting [15]); 39.53 in experiment [2] (setting [16]); 43.441 in experiment [2] (setting [17]).

Take `COc1cccc(-c2cc(=O)c3ccccc3o2)c1N` [PD98059]: the “TNF level in culture medium” value in experiment [1] (setting [6]) came out at 26.755; in experiment [1] (setting [13]) it was 0 pg/mL; in experiment [1] (setting [8]), 9.578; in experiment [1] (setting [9]), 1779.92; in experiment [1] (setting [10]), 1294.03; in experiment [1] (setting [11]) it was 1283.56. For the same molecule, the “IL-6 level in culture medium” value is reported as 7.69 in experiment [2] (setting [12]); 0 in experiment [2] (setting [13]); 2.224 in experiment [2] (setting [14]); 19.112 in experiment [2] (setting [15]); 12.03 in experiment [2] (setting [16]); 16.667 in experiment [2] (setting [17]).

On to `C[S+]([O-])c1ccc(-c2nc(-c3ccncc3)c(-c3ccc(F)cc3)[nH]2)cc1` (centres unmarked) [SB203580], for which the “TNF level in culture medium” value came to 86.693 in experiment [1] (setting [6]); 25.813 in experiment [1] (setting [7]); 72.783 in experiment [1] (setting [8]); 2106.86 in experiment [1] (setting [9]); 5252.19 in experiment [1] (setting [10]); 5785.62 in experiment [1] (setting [11]). The “IL-6 level in culture medium” value in experiment [2] (setting [12]) came out at 3.021; in experiment [2] (setting [13]), 5.813; in experiment [2] (setting [14]) it was 3.214; in experiment [2] (setting [15]) it was 30.327; in experiment [2] (setting [16]), 52.19; in experiment [2] (setting [17]), 33.459.

B1: HMGB1: recombinant mouse HMGB1, Abcam (#ab181949) (protein, UniProt P63158 1-215, looked up)
High mobility group protein B1: MGKGDPKKPRGKMSSYAFFVQTCREEHKKKHPDASVNFSEFSKKCSERWKTMSAKEKGKFEDMAKADKARYEREMKTYIPPKGETKKKFKDPNAPKRPPSAFFLFCSEYRPKIKGEHPGLSIGDVAKKLGEMWNNTAADDKQPYEKKAAKLKEKYEKDIAAYRAKGKPDAAKKGVVKAEKSKKKKEEEDDEEDEEDEEEEEEEEDEDEEEDDDDE
Turning to B1, the “Relative IKKα/β phosphorylation, Supplementary figure 12c” value in experiment [3] (SLP76-/-, Exp1) is 0.8306; in experiment [3] (SLP76-/-, Exp2) it was 2.523; in experiment [3] (SLP76-/-, Exp3), 0.8014; in experiment [3] (WT, Exp1), 3.067; in experiment [3] (WT, Exp2), 3.67; in experiment [3] (WT, Exp3), 5.409. In experiment [4] (HMGB1 400 ng/ml, 15 min, p38 MAPK, ERK1/2, IKKα/β, text says RAW264.7 cells, figure BMDMs), the “Activation of proinflammatory signaling pathways” value is “activated proinflammatory signaling pathways via SLP76”. Moreover, the “Relative p38 MAPK phosphorylation, Supplementary figure 12a” value in experiment [4] (SLP76-/-, Exp1) is recorded as 2.8038; in experiment [4] (SLP76-/-, Exp2) it was 3.004; in experiment [4] (SLP76-/-, Exp3) it was 2.223; in experiment [4] (WT, Exp1), 7.041; in experiment [4] (WT, Exp2) it was 4.728; in experiment [4] (WT, Exp3), 5.924. For the same molecule, the “Relative ERK1/2 phosphorylation, Supplementary figure 12b” value in experiment [5] (SLP76-/-, Exp1) came to 7.033; in experiment [5] (SLP76-/-, Exp2), 9.087; in experiment [5] (SLP76-/-, Exp3), 4.787; in experiment [5] (WT, Exp1), 15.3469; in experiment [5] (WT, Exp2) it was 12.0882; in experiment [5] (WT, Exp3), 9.928.

B2: SAM domain of SLP76: synthesized peptide of SLP76 SAM domain used in SPRi (peptide)
peptide: WDPDSLADYFKKLNYKDCEKAVKKYHIDGARFLNLTENDIQKFPKLRVPILSKLSQEINKNEERRSI
In the case of B2, in the experiment with cytosolic tail of RAGE, the “Binding to cytosolic tail of RAGE” value is on record as “dose-dependent binding”.
